Where a name gives a salt, the structure may show the parent alone.
Legend:
[1] = target: histone deacetylase (HeLa nuclear extracts); assay: In vitro assay for inhibition of histone deacetylase (example C.1.c, HeLa nuclear extracts); assay type: biochemical; settings: HeLa nuclear extract, 45 min at 37° C.; work performed by Reaction Biology Corp.
Protocol: The in vitro assay for inhibition of histone deacetylase (see example C.1) measures the inhibition of HDAC enzymatic activity obtained with the compounds of formula (I).
HeLa nuclear extracts (prepared by high salt extraction of HeLa nuclei, J. D. Dignam et al., S. M. Abmayr et al) were incubated with 9 mg/ml in 0.1M KCl, 20 mM HEPES/NaOH, pH 7.9, 20% (v/v) glycerol, 0.2 mM EDTA, 0.5 mM DTT, 0.5 mM PMSF of enzyme. After 45 min, at 37° C. the deacetylation reaction was terminated. The developer reaction (also at 37° C.) was read in a time dependent manner for an hour. For each experiment, controls (containing HeLa nuclear extract and DMSO without compound) and samples (containing compound dissolved in DMSO and HeLa nuclear extract) were run in parallel. The compounds were tested at concentrations between 10^−5M and 10^−12M. The control sample represented 100% of substrate deactylation. For each sample the activity was expressed as a percentage of the mean value of the controls. Appropriate IC50-values (concentration of the drug, needed to reduce the amount of metabolites to 50% of the control) were computed using the Prism program. Herein the effects of test compounds are expressed as pIC50 (the negative log value of the IC50-value) (see Table F-2). Work was performed by Reaction Biology Corp. (Malvern, Pa., USA).

[2] = tested on: HCT116 cells; assay: Antiproliferative activity on HCT116 cells (Alamar Blue assay, example C.2); assay type: cell-based; settings: HCT-116, 96 h, Human colon carcinoma HCT116 cells, 4-day incubation, read-out: Cellular activity pIC50 C.2 (converted)
Protocol: Cellular activity of the compounds of formula (I) was determined on HCT116 tumour cells using a colorimetric assay for cell toxicity or survival (Mosmann Tim, Journal of Immunological Methods 65: 55-63, 1983) (see example C.2).
Human colon carcinoma HCT116 cells obtained from the ATCC were cultured in McCoy's 5A medium supplemented with 2 mM L-Glutamine, 50 μg/ml gentamicin and 10% heat inactivated fetal calf serum.
Reagents Used in the Alamar Blue Assay
Resazurin was purchased from Aldrich (Prod. No. 199303). Potassium ferrocyanide, potassium ferricyanide, KH2PO4 and K2HPO4 were purchased from Sigma (Prod. Nos. P9387, P8131, P5655 and P8281, respectively).
Potassium Phosphate Buffer 0.1 M (PPB) was made as follows: 2.72 gram KH2PO4 and 13.86 gram K2HPO4 were dissolved in 500 ml milli-Q H2O, the pH was adjusted to pH 7.4 and the volume was brought to 1 liter with milli-Q H2O; the buffer was filter sterilised and stored at room temperature. Resazurin stock solution (PPB-A) was prepared fresh by dissolving 45 mg resazurin in 15 ml PBS. 30 mM potassium ferricyanide (PPB-B) was prepared by dissolving 0.987 gram potassium ferricyanide in 100 ml PPB. 30 mM potassium ferrocyanide (PPB-C) was prepared by dissolving 1.266 gram potassium ferrocyanide in 100 ml PPB.
Mixture of PPB-A, PPB-B and PPB-C was prepared by mixing equal volumes of the respective solutions. Resazurin work solution (herein termed “Alamar Blue” solution) was prepared by diluting said mixture 20× (vol/vol) in PPB and filter sterilising; the Alamar Blue solution could be kept at 4° C. for a maximum of 2 weeks.
Procedure of the Alamar Blue Assay
For experiments in 384 wells plates the cells were seeded at a density of 4.5×10^3 cells/ml in Falcon 384-well culture plates (Life Technologies, Merelbeke, Belgium), black with clear bottom, in 45 μl culture medium. Cells were allowed to adhere to plastic for 24 hr. The tested compound was pre-diluted (1/50 in culture medium) and 5 μl pre-diluted compound was added to the wells. Following 4-day incubation, 10 μl of the Alamar Blue solution was added to each well and the cells were further incubated for 4 hrs (HCT116) or 24 hrs (PC-3) at 37° C. The fluorescence intensity was measured for each well on a Fluorescence plate reader (Fluorskan, Labsystems, 540 nm excitation and 590 nm emission)
The antiproliferative activity was calculated as percentage of remaining viable cells in treated versus control (untreated cells) conditions. Within an experiment, the result for each experimental condition is the mean of 3 replicate wells. When appropriate, the experiments were repeated to establish full concentration-response curves. When appropriate, IC50-values (concentration of the drug, needed to reduce cell growth to 50% of the control) were computed using probit analysis for graded data (Finney, D. J., Probit Analyses, 2nd Ed. Chapter 10, Graded Responses, Cambridge University Press, Cambridge 1962). Herein the effects of test compounds are expressed as pIC50 (the negative log value of the IC50-value) (see Table F-2).

SMILES	melting point [°C]	Enzymatic activity pIC50 C.1.c. [1]	IC50 [2] [nM]
Cn1cc(CNCC2C3CN(c4ncc(C(=O)NO)cn4)CC23)c2ccccc21 (centres unmarked) (as salt: trifluoroacetate) [Compound 1]	150	–	–
Cn1cc(CNC2C3CN(c4ncc(C(=O)NO)cn4)CC32)c2ccccc21 (centres unmarked) (as salt: trifluoroacetate) [Compound 2]	157	–	–
Cn1cc(CNCC2C3CN(c4ncc(C(=O)NO)cn4)CC23)c2ccccc21 (centres unmarked) [Compound 1]	–	8.39	89.1
Cn1cc(CNC2C3CN(c4ncc(C(=O)NO)cn4)CC32)c2ccccc21 (centres unmarked) [Compound 2]	–	8.62	661
Cn1cc(CNCC2C3CN(c4ncc(C(=O)NO)cn4)CC23)c2cc(Cl)ccc21 (centres unmarked) [Compound 3]	–	–	75.9
Cn1cc(CNCC2C3CN(c4ncc(C(=O)NO)cn4)CC23)c2cc(F)ccc21 (centres unmarked) [Compound 4]	–	–	81.3
Cn1cc(CNCC2C3CN(c4ncc(C(=O)NO)cn4)CC23)c2cc(C#N)ccc21 (centres unmarked) [Compound 5]	–	–	398
CCCn1cc(CNCC2C3CN(c4ncc(C(=O)NO)cn4)CC23)c2cc(Cl)ccc21 (centres unmarked) [Compound 6]	–	–	35.5
CCCn1cc(CNCC2C3CN(c4ncc(C(=O)NO)cn4)CC23)c2cc(F)ccc21 (centres unmarked) [Compound 7]	–	–	25.7

From patent US8476289B2, “Aza-bicyclohexyl substituted indolyl alkyl amino derivatives as novel inhibitors of histone deacetylace” (Janssen Pharmaceutica NV, priority 2008, dated 2013)
